Test results from ChEMBL document CHEMBL1201862, “PubChem BioAssay data set” (2004).
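All cell lines were grown in 96-well plates and treated with compound for 48 hours. GI50 = concentration required for 50% inhibition of growth.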 Activity calls are given as the source filed them. No stated cut-off is given here; in the data, active = GI50 up to about 1.1 µM and inactive = higher.

Legend:
Experiment in all cases: DTP human tumour cell line panel, 48 h
786-0 = system: 786-0
A498 = system: A498
DU-145 = system: DU-145
EKVX = system: EKVX
HCT-116 = system: HCT-116
Hs-578T = system: Hs-578T
M14 = system: M14
NCI-H226 = system: NCI-H226
NCI-H460 = system: NCI-H460
NCI-H522 = system: NCI-H522
OVCAR-3 = system: OVCAR-3
OVCAR-4 = system: OVCAR-4
OVCAR-8 = system: OVCAR-8
RXF 393 = system: RXF 393
SF-268 = system: SF-268
SK-MEL-2 = system: SK-MEL-2
SK-OV-3 = system: SK-OV-3
SR = system: SR
UACC-62 = system: UACC-62
CCRF-CEM = system: CCRF-CEM

Measured: GI50

O=C(O)CSc1nnc2c3ccccc3c3ccccc3c2n1
inactive: 786-0 56.2 µM | A498 > 100 µM | DU-145 57.9 µM | EKVX 63 µM | HCT-116 38.2 µM | Hs-578T 70.6 µM | M14 47.1 µM | NCI-H226 85.7 µM | NCI-H460 31.8 µM | NCI-H522 49.9 µM | OVCAR-3 33.3 µM | OVCAR-4 45.6 µM | OVCAR-8 50.4 µM | RXF 393 57.9 µM | SF-268 56.1 µM | SK-MEL-2 > 100 µM | SK-OV-3 71 µM | SR 31.9 µM | UACC-62 61.9 µM

NC1(C(=O)O)CCCC1C(=O)O (centres undefined)
inactive: 786-0 > 100 µM | A498 > 100 µM | CCRF-CEM > 100 µM | DU-145 > 100 µM | EKVX > 100 µM | HCT-116 > 100 µM | Hs-578T > 100 µM | M14 > 100 µM | NCI-H460 > 100 µM | NCI-H522 > 100 µM | OVCAR-3 > 100 µM | OVCAR-4 > 100 µM | OVCAR-8 > 100 µM | RXF 393 > 100 µM | SF-268 > 100 µM | SK-MEL-2 > 100 µM | SK-OV-3 > 100 µM | SR > 100 µM | UACC-62 > 100 µM

c1cc(-c2ccc(-c3ccc(-c4ccc(-c5ccncc5)o4)cc3)o2)ccn1
inactive: 786-0 15.9 µM | A498 > 100 µM | CCRF-CEM 5.68 µM | DU-145 15 µM | EKVX 22.4 µM | HCT-116 16.1 µM | Hs-578T 64.1 µM | M14 17.7 µM | NCI-H226 27.4 µM | NCI-H460 15.2 µM | NCI-H522 15.3 µM | OVCAR-3 23 µM | OVCAR-4 14.9 µM | OVCAR-8 16.8 µM | RXF 393 > 100 µM | SF-268 20.7 µM | SK-OV-3 21.1 µM | SR 24.1 µM | UACC-62 17.9 µM

CC1(C)C2CCC1(C)[C@H](n1c(=O)n([C@@H]3CC4CCC3(C)C4(C)C)c(=O)n([C@@H]3CC4CCC3(C)C4(C)C)c1=O)C2
inactive: 786-0 28 µM | A498 88.5 µM | DU-145 55.7 µM | EKVX 30 µM | HCT-116 36.7 µM | Hs-578T 37.9 µM | M14 > 100 µM | NCI-H226 27.7 µM | NCI-H460 31.2 µM | NCI-H522 37.4 µM | OVCAR-3 35.4 µM | OVCAR-4 > 100 µM | OVCAR-8 49.9 µM | RXF 393 19.8 µM | SF-268 41.6 µM | SK-MEL-2 22.3 µM | SR 71.4 µM

C[C@@]1(O)C[C@@H](N2C(=O)O[C@@H](c3ccccc3)[C@H]2c2ccccc2)[C@@H]1COCc1ccccc1
inactive: 786-0 21.3 µM | A498 18.4 µM | DU-145 28.5 µM | EKVX 20.5 µM | HCT-116 19.5 µM | Hs-578T 21.9 µM | M14 15.8 µM | NCI-H226 20.2 µM | NCI-H460 17.7 µM | NCI-H522 15 µM | OVCAR-3 17.3 µM | OVCAR-4 22.9 µM | OVCAR-8 17.8 µM | RXF 393 18.8 µM | SF-268 18.2 µM | SK-MEL-2 12.7 µM | SR 15 µM | UACC-62 11.3 µM

CN(CCc1ccc(Cl)c(Cl)c1)[C@H]1CCCC[C@H]1N1CCCC1
inactive: 786-0 > 100 µM | A498 > 100 µM | DU-145 > 100 µM | EKVX > 100 µM | HCT-116 > 100 µM | Hs-578T > 100 µM | M14 > 100 µM | NCI-H226 > 100 µM | NCI-H522 > 100 µM | OVCAR-3 > 100 µM | OVCAR-4 > 100 µM | OVCAR-8 > 100 µM | RXF 393 > 100 µM | SF-268 > 100 µM | SK-MEL-2 > 100 µM | SK-OV-3 > 100 µM | SR > 100 µM | UACC-62 > 100 µM

C=C(Cl)C(Cl)(CBr)CCCC(C)C (centres undefined)
inactive: 786-0 9.66 µM | A498 19.4 µM | CCRF-CEM > 57.5 µM | DU-145 11.5 µM | EKVX 18.3 µM | HCT-116 6.47 µM | Hs-578T 7.19 µM | M14 > 100 µM | NCI-H226 > 100 µM | NCI-H460 15.7 µM | NCI-H522 > 100 µM | OVCAR-3 6.89 µM | OVCAR-4 33 µM | OVCAR-8 20.7 µM | RXF 393 7.69 µM | SF-268 15.1 µM | SK-OV-3 > 100 µM | SR > 75.7 µM | UACC-62 > 63.5 µM

OC1(c2cc3ccccc3s2)CCCCC1
inactive: 786-0 34 µM | A498 43.2 µM | CCRF-CEM 21.4 µM | DU-145 63.2 µM | EKVX 33.6 µM | HCT-116 33.3 µM | Hs-578T 28.5 µM | M14 66.8 µM | NCI-H226 80.9 µM | NCI-H460 44.2 µM | NCI-H522 28.1 µM | OVCAR-3 30.1 µM | OVCAR-4 39.2 µM | OVCAR-8 42.6 µM | RXF 393 39.4 µM | SF-268 29.2 µM | SK-OV-3 66.4 µM | SR 38.4 µM | UACC-62 69.7 µM

CC(C)=CCN(N=O)c1ncnc2[nH]cnc12
inactive: 786-0 > 100 µM | A498 95.1 µM | CCRF-CEM > 100 µM | DU-145 > 100 µM | EKVX > 100 µM | HCT-116 > 100 µM | Hs-578T > 100 µM | M14 > 100 µM | NCI-H226 > 100 µM | NCI-H460 > 100 µM | NCI-H522 > 100 µM | OVCAR-3 > 100 µM | OVCAR-4 89.5 µM | OVCAR-8 > 100 µM | RXF 393 > 100 µM | SF-268 > 100 µM | SK-OV-3 > 100 µM | SR 75.3 µM

S=C1/C(=N/c2ccccc2)N(c2ccccc2)/C(=N\c2cccc[n+]2Cc2ccccc2)N1c1ccccc1
inactive: 786-0 15.8 µM | DU-145 28.1 µM | EKVX 19.7 µM | HCT-116 11.1 µM | Hs-578T 33.9 µM | M14 12.9 µM | NCI-H226 19.3 µM | NCI-H460 18.7 µM | NCI-H522 13.3 µM | OVCAR-3 18.5 µM | OVCAR-8 17.9 µM | RXF 393 13.4 µM | SF-268 20.6 µM | SK-MEL-2 24.3 µM | SK-OV-3 21.7 µM | SR 15.3 µM | UACC-62 11.9 µM

O=C(Nc1ccccc1F)c1cc2ccc(O)cc2o/c1=N\c1cccc(C(F)(F)F)c1
inactive: 786-0 4.57 µM | A498 7.4 µM | CCRF-CEM 1.92 µM | DU-145 4.04 µM | EKVX 3.76 µM | HCT-116 2.85 µM | Hs-578T 1.94 µM | M14 5.18 µM | NCI-H460 3.22 µM | NCI-H522 2 µM | OVCAR-3 3.77 µM | OVCAR-4 2.63 µM | OVCAR-8 2.18 µM | SF-268 2.82 µM | SK-MEL-2 4.36 µM | SK-OV-3 3.78 µM | SR 3.31 µM | UACC-62 3.81 µM

COc1cc([C@H]2c3cc(O)c(OC)cc3C[C@]3(O)[C@@H]2CO[C@@H]3O)ccc1O
inactive: 786-0 > 100 µM | A498 > 100 µM | CCRF-CEM > 100 µM | DU-145 > 100 µM | EKVX > 100 µM | HCT-116 > 100 µM | Hs-578T > 100 µM | M14 > 100 µM | NCI-H226 > 100 µM | NCI-H460 > 100 µM | NCI-H522 > 100 µM | OVCAR-3 > 100 µM | OVCAR-4 > 100 µM | OVCAR-8 > 100 µM | SF-268 > 100 µM | SK-MEL-2 > 100 µM | SK-OV-3 > 100 µM | SR > 100 µM | UACC-62 > 100 µM

CCOC(=O)NN(C(=O)OCC)C(C(=O)C1=CCCCC1)N(NC(=O)OCC)C(=O)OCC
inactive: 786-0 > 100 µM | A498 22.6 µM | DU-145 > 100 µM | EKVX > 100 µM | HCT-116 > 100 µM | Hs-578T > 100 µM | M14 > 100 µM | NCI-H226 > 100 µM | NCI-H460 > 100 µM | NCI-H522 > 100 µM | OVCAR-3 > 100 µM | OVCAR-4 > 100 µM | OVCAR-8 > 100 µM | RXF 393 > 100 µM | SF-268 > 100 µM | SK-MEL-2 > 100 µM | SK-OV-3 > 100 µM | SR > 100 µM

COc1ccc2[nH]c3c(c2c1)CCc1c(OC)cccc1-3
inactive: 786-0 > 100 µM | A498 > 100 µM | CCRF-CEM 52.2 µM | DU-145 > 100 µM | EKVX > 100 µM | HCT-116 > 100 µM | Hs-578T 39.7 µM | M14 > 100 µM | NCI-H226 > 100 µM | NCI-H460 > 100 µM | NCI-H522 87.1 µM | OVCAR-3 > 100 µM | OVCAR-4 40.3 µM | OVCAR-8 > 100 µM | SF-268 > 100 µM | SK-MEL-2 > 100 µM | SK-OV-3 > 100 µM | SR > 100 µM | UACC-62 > 100 µM

CCn1c(=O)c2c3ccc(OC(C)=O)cc3[nH]c2c2ccc(OC(C)=O)cc21
inactive: 786-0 58.1 µM | CCRF-CEM 15.2 µM | DU-145 18.5 µM | HCT-116 15.5 µM | Hs-578T 34.5 µM | M14 45.3 µM | NCI-H226 24.8 µM | NCI-H460 29 µM | NCI-H522 37.2 µM | OVCAR-3 32 µM | OVCAR-4 57.4 µM | OVCAR-8 31.3 µM | RXF 393 34.2 µM | SF-268 35.8 µM | SK-OV-3 44.3 µM | SR 36.6 µM | UACC-62 24.1 µM
